Source: PubChem BioAssay AID2060492 (Molecular Pharmacology Branch, DTP, NCI, 2025)

Tested on: 695427-040-R-J1-PDC complex spheroids, viability percent T/C
Test: Anticancer human tumor 695427-040-R-J1-PDC patient-derived colon adenocarcinoma cell line growth inhibition [GQUAD]
Conditions: for IC50: curve of first compound; for viability, T/C: stronger effect = lower value
Outline: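 Tumor cells were grown as complex spheroids with HUVEC endothelial cells and mesenchymal stem cells as stroma. G-quadruplex stabilizers were combined with targeted agents over half-log dilutions from near the clinical Cmax, or from 10 microM.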

[1] = second compound 0.0316 µM, first compound 0.0316 µM
[2] = second compound 0.0316 µM, first compound 0.1 µM
[3] = second compound 0.0316 µM, first compound 0.316 µM
[4] = second compound 0.0316 µM, first compound 1 µM
[5] = second compound 0.0316 µM, first compound 3.16 µM
[6] = second compound 0.0316 µM, first compound 10 µM
[7] = second compound 0.1 µM, first compound 0.0316 µM
[8] = second compound 0.1 µM, first compound 0.1 µM
[9] = second compound 0.1 µM, first compound 0.316 µM
[10] = second compound 0.1 µM, first compound 1 µM
[11] = second compound 0.1 µM, first compound 3.16 µM
[12] = second compound 0.1 µM, first compound 10 µM
[13] = second compound 0.316 µM, first compound 0.0316 µM
[14] = second compound 0.316 µM, first compound 0.1 µM
[15] = second compound 0.316 µM, first compound 0.316 µM
[16] = second compound 0.316 µM, first compound 1 µM
[17] = second compound 0.316 µM, first compound 3.16 µM
[18] = second compound 0.316 µM, first compound 10 µM
[19] = second compound 1 µM, first compound 0.0316 µM
[20] = second compound 1 µM, first compound 0.1 µM
[21] = second compound 1 µM, first compound 0.316 µM
[22] = second compound 1 µM, first compound 1 µM
[23] = second compound 1 µM, first compound 3.16 µM
[24] = second compound 1 µM, first compound 10 µM
[25] = second compound 3.16 µM, first compound 0.0316 µM
[26] = second compound 3.16 µM, first compound 0.1 µM
[27] = second compound 3.16 µM, first compound 0.316 µM
[28] = second compound 3.16 µM, first compound 1 µM
[29] = second compound 3.16 µM, first compound 3.16 µM
[30] = second compound 3.16 µM, first compound 10 µM
[31] = second compound 10 µM, first compound 0.0316 µM
[32] = second compound 10 µM, first compound 0.1 µM
[33] = second compound 10 µM, first compound 0.316 µM
[34] = second compound 10 µM, first compound 1 µM
[35] = second compound 10 µM, first compound 3.16 µM
[36] = second compound 10 µM, first compound 10 µM
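Note: spheroids exposed to compounds for seven days before readout.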

Compound `C=CCn1c(=O)c2cnc(Nc3ccc(N4CCN(C)CC4)cc3)nc2n1-c1cccc(C(C)(C)O)n1` + Cc1cnc(CNC(=O)c2c(=O)c3ccc(N4CCCN(C)CC4)nc3n3c2sc2ccccc23)cn1 has an IC50 (second compound 0.0316 µM) of 1720 nM, an IC50 (second compound 0.1 µM) of 2450 nM and an IC50 (second compound 0.316 µM) of 5160 nM. For the same compound, the IC50 (second compound 1 µM) was 8260 nM, the IC50 (second compound 3.16 µM) was less than 31.6 nM and the IC50 (second compound 10 µM) was less than 31.6 nM. It also gave a viability, T/C [1] of 88.3%, a viability, T/C [2] of 78.8% and a viability, T/C [3] of 73.2%. The viability, T/C [4] was 51.7%, the viability, T/C [5] was 47% and the viability, T/C [6] was 41.1%. It also gave a viability, T/C [7] of 79.5%, a viability, T/C [8] of 71% and a viability, T/C [9] of 65.2%. For the same compound, the viability, T/C [10] was 49.4%, the viability, T/C [11] was 53.8% and the viability, T/C [12] was 40.8%. For the same compound, the viability, T/C [13] was 74.8%, the viability, T/C [14] was 55% and the viability, T/C [15] was 67.6%. It also gave a viability, T/C [16] of 58.5%, a viability, T/C [17] of 59.3% and a viability, T/C [18] of 40.6%. The viability, T/C [19] was 51.6%, the viability, T/C [20] was 57.2% and the viability, T/C [21] was 62%. The viability, T/C [22] was 43%, the viability, T/C [23] was 55.2% and the viability, T/C [24] was 49.5%. The viability, T/C [25] was 32.3%, the viability, T/C [26] was 49.6% and the viability, T/C [27] was 48.6%. The viability, T/C [28] was 33.4%, the viability, T/C [29] was 28.8% and the viability, T/C [30] was 28.6%. For the same compound, the viability, T/C [31] was 9.19%, the viability, T/C [32] was 15.3% and the viability, T/C [33] was 32.1%. For the same compound, the viability, T/C [34] was 25%, the viability, T/C [35] was 14.7% and the viability, T/C [36] was 0.75%.
Work on `CC(C)(O)C1CCC(Nc2ccc3ncc(-c4cccc(C(F)(F)F)c4)n3n2)CC1` (stereo unspecified) + Cc1cnc(CNC(=O)c2c(=O)c3ccc(N4CCCN(C)CC4)nc3n3c2sc2ccccc23)cn1 yielded an IC50 (second compound 0.0316 µM) of 1110 nM, an IC50 (second compound 0.1 µM) of 848 nM and an IC50 (second compound 0.316 µM) of 1070 nM. It also gave an IC50 (second compound 1 µM) of 324 nM, an IC50 (second compound 3.16 µM) of less than 31.6 nM and an IC50 (second compound 10 µM) of less than 31.6 nM. For the same compound, the viability, T/C [1] was 82.1%, the viability, T/C [2] was 77.6% and the viability, T/C [3] was 73.5%. It also gave a viability, T/C [4] of 54.2%, a viability, T/C [5] of 8.38% and a viability, T/C [6] of 11.3%. It also gave a viability, T/C [7] of 86.5%, a viability, T/C [8] of 61.3% and a viability, T/C [9] of 78.2%. For the same compound, the viability, T/C [10] was 45.8%, the viability, T/C [11] was 12.6% and the viability, T/C [12] was 11.2%. The viability, T/C [13] was 75.2%, the viability, T/C [14] was 52.5% and the viability, T/C [15] was 62.6%. For the same compound, the viability, T/C [16] was 52.5%, the viability, T/C [17] was 8.9% and the viability, T/C [18] was 11.4%. The viability, T/C [19] was 67.3%, the viability, T/C [20] was 59.8% and the viability, T/C [21] was 46.9%. For the same compound, the viability, T/C [22] was 34.7%, the viability, T/C [23] was 1.37% and the viability, T/C [24] was 4.04%. It also gave a viability, T/C [25] of 44.2%, a viability, T/C [26] of 40.6% and a viability, T/C [27] of 50.6%. It also gave a viability, T/C [28] of 17.7%, a viability, T/C [29] of 0.11% and a viability, T/C [30] of 0.15%. It also gave a viability, T/C [31] of 24.7%, a viability, T/C [32] of 21.9% and a viability, T/C [33] of 12.1%. For the same compound, the viability, T/C [34] was 0.26%, the viability, T/C [35] was 0.2% and the viability, T/C [36] was 0.19%.
With `COc1ncnc(C2CC2)c1-c1ncc2cnn(Cc3ccc(-c4nc(C(F)(F)F)cn4C(C)C)cc3)c2n1` + Cc1cnc(CNC(=O)c2c(=O)c3ccc(N4CCCN(C)CC4)nc3n3c2sc2ccccc23)cn1 the IC50 (second compound 0.0316 µM) was greater than 10000 nM, the IC50 (second compound 0.1 µM) was greater than 10000 nM and the IC50 (second compound 0.316 µM) was greater than 10000 nM. The IC50 (second compound 1 µM) was greater than 10000 nM, the IC50 (second compound 3.16 µM) was less than 31.6 nM and the IC50 (second compound 10 µM) was less than 31.6 nM. The viability, T/C [1] was 104%, the viability, T/C [2] was 75.9% and the viability, T/C [3] was 80.3%. It also gave a viability, T/C [4] of 62.4%, a viability, T/C [5] of 83.7% and a viability, T/C [6] of 75.6%. For the same compound, the viability, T/C [7] was 90.4%, the viability, T/C [8] was 63.2% and the viability, T/C [9] was 71.9%. The viability, T/C [10] was 81.4%, the viability, T/C [11] was 72.1% and the viability, T/C [12] was 79.7%. For the same compound, the viability, T/C [13] was 66.3%, the viability, T/C [14] was 67.9% and the viability, T/C [15] was 58.5%. For the same compound, the viability, T/C [16] was 65.2%, the viability, T/C [17] was 62.8% and the viability, T/C [18] was 69.2%. The viability, T/C [19] was 56.1%, the viability, T/C [20] was 58.1% and the viability, T/C [21] was 70%. For the same compound, the viability, T/C [22] was 64.5%, the viability, T/C [23] was 68.4% and the viability, T/C [24] was 73.9%. It also gave a viability, T/C [25] of 34.3%, a viability, T/C [26] of 37.7% and a viability, T/C [27] of 42.8%. It also gave a viability, T/C [28] of 43%, a viability, T/C [29] of 53.2% and a viability, T/C [30] of 45.8%. It also gave a viability, T/C [31] of 18.6%, a viability, T/C [32] of 31.1% and a viability, T/C [33] of 43.1%. The viability, T/C [34] was 29.9%, the viability, T/C [35] was 34.6% and the viability, T/C [36] was 24.1%.
